According to patent US20240000748A1, “FORMULATIONS AND METHODS FOR TREATING ACUTE CANNABINOID OVERDOSE” (Anebulo Pharmaceuticals, Inc., priority 2020, published 2024):

Experiments:
rat = assay: Repeated dose (28 day) toxicity study in rat; assay type: in vivo; settings: repeated dose 28 day
Experimental: Repeated dose (28 day) toxicity studies were conducted using ANEB-001 in two species, rat and primate, selected on the basis of acceptable bioavailability and comparison of metabolite profiles with those in human liver microsomes.

C57 mice = assay: Reversal of THC-induced hypolocomotion in mice; assay type: in vivo; settings: 30 min pre-test
Experimental: Reversal of THC-induced hypolocomotion in mice: Six C57 mice (Charles River, Wilmington, MA) were administered […] (THC) 3 mg/kg ip, 10 min pre-test. […] In this apparatus, four qualitatively different measures of locomotor activity are automatically scored. […] The magnitude of the effect is similar to that elicited by rimonabant given at 3 mg/kg po, and given 30 min pre-test.

Structure (SMILES)	findings at dose levels of 75 mg/kg/day (rat; 75 mg/kg/day)	no observed adverse effect level (rat; highest dose tested) [mg/kg/day]	action of THC on the total active time parameter of locomotor measures (C57 mice; 30 mg/kg orally, THC 3 mg/kg ip 10 min pre-test, 15 min in locomotor activity cages)	magnitude of the effect on THC-induced hypolocomotion (compared with ANEB-001) (C57 mice; 3 mg/kg po)
CC(C)(C)NC(=O)N1CC(O[C@H](c2ccc(Cl)cc2)c2ccccc2C(F)(F)F)C1 [ANEB-001, 3-[(R)-2-(trifluoromethyl)-4′-chlorobenzhydryloxy]-N-(tert-butyl)azetidine-1-carboxamide]	hepatic changes consistent with an adaptive response	75	significantly reversed	
Cc1c(C(=O)NN2CCCCC2)nn(-c2ccc(Cl)cc2Cl)c1-c1ccc(Cl)cc1 [rimonabant, reference compound]				similar
